The test system of one series is 8MGBA cells. In words: Cell viability assay (CellTiter-Glo), 8MGBA. Type of series: cell-based. The conditions noted are these: Homo sapiens, 8-MG-BA; Cell Line: 8MGBA; read-out: LC50 (μM ± SD). How it is done: (§1) In vitro activity of QBS10072S was assessed using a modified clonogenic cell viability assay in 96-well clear-bottom plates. For the LLC-PK1 inducible LAT1-expressing cell line, 1000 cells/well were plated and cells were treated with either butyrate alone (non-induced) or with both butyrate and doxycycline (induced) as described above. For GBM cell lines, 2000 cells/well were plated. On day 2 (GBM) or day 3 (LLC-PK1) after original plating, cells were washed twice with PBS and incubated with 50 μL of various concentrations of QBS10072S in PBS in at least quadruplicate. After 30 minutes at 37°C, 200 μL of growth medium was added to each well. Clonal populations were allowed to grow until the control wells (mock treatment) were near confluence (7 to 10 days). At this point, 170 μL media were removed and 60 μL CellTiter-Glo® (Promega, Madison, WI) were added to each well. Plates were placed on an orbital shaker for three minutes to lyse the cells and then incubated for an additional 10 minutes at RT to stabilize the luminescent signal. Luminescence was recorded using an EnSpire® Multimode Plate Reader (Perkin Elmer). Background (luminescence from wells incubated with 100 μM melphalan or lomustine) was subtracted and data were normalized to the control. EC50s were determined by non-linear regression using GraphPad Prism.

Series [1] concerns U251 intracerebral human GBM xenograft. In words: U251 intracerebral human GBM xenograft in athymic mice (BLI, survival). Type of series: in vivo, mouse. How it is done: Five-week-old female athymic mice (nu/nu, homozygous: Simonsen Laboratories, Gilroy, CA), housed under aseptic conditions, received intracranial tumor cell injection as previously described and as approved by the University of California San Francisco Institutional Animal Care and Use Committee, Protocol #: AN111064-03. Briefly, mice were anesthetized by intraperitoneal injection of ketamine (100 mg/kg) and xylazine (10 mg/kg) and injected with 3 μL of tumor cell suspension (300,000 cells total) into the right caudate-putamen. Coordinates: 3 mm to the right from bregma, on top of the coronal suture, and 3.5 mm depth. Injection rate: ~30 second/uL. For treatment studies, eight mice were used for each group for LN229 studies and nine mice per group for U251 studies. Treatments began when tumors entered the log-phase of growth as measured by luminescence, for the LN229 experiment on Day 21 and for U251 experiments on Day 14.
Dosing levels and frequency are described in the figure legends.
For bioluminescence imaging (BLI), mice were anesthetized as above, then administered 150 mg/kg of luciferin (D-luciferin potassium salt, Gold Biotechnology, St. Louis, MO) via intraperitoneal injection. Ten minutes after luciferin injection, mice were examined for tumor bioluminescence with an IVIS Lumina imaging station and Living Image software (Caliper Life Sciences, Alameda, CA), and regions of interest were recorded as photons per second per steradian per square cm.
Mice were anesthetized via inhalation of 2.5% isoflurane with 1 L of oxygen per minute for five minutes prior to being positioned on an irradiation platform located 16.3 cm from a cesium-137 source (JL Shepherd & Associates, San Fernando, CA). Eyes, respiratory tracts, and bodies were protected with lead shielding. Mice received whole-brain irradiation at a dose rate of 247 cGy/min until 1.5 Gy radiation had been administered. After irradiation, animals were monitored until recovery. Mice were irradiated once daily for five consecutive days. All mice received the first radiation dose when tumors were in a log-phase growth (Day 14) as determined by BLI.
Tumor-bearing mice were treated with temozolomide (TMZ) 4 mg/kg via oral gavage, starting on day 14 post U251 cell injection once daily for five days - concurrent therapy with RT. TMZ was obtained from the UCSF hospital pharmacy and formulated with the Ora-Plus suspending vehicle (Perrigo, Dublin, Ireland) with a working concentration of 1 mg/mL.
(In general: A xenograft is tissue or cells of one species grown in another, often human tumour cells in immunodeficient mice.)

The test system of another series is AM38 cells. The experiment in a line: Cell viability assay (CellTiter-Glo), AM38. It counts as cell-based. The note with it: Homo sapiens, AM-38; Cell Line: AM38; read-out: LC50 (μM ± SD). The protocol:
as §1
A general note: Cellular ATP, detected with luciferase, serves as a proxy for viable cell number.

On to `Cc1ccc(N(CCCl)CCCl)cc1C[C@H](N)CC(=O)O` [QBS10072S, (+)-(3S)-amino-4-[5-[bis(2-chloroethyl)amino]-2-methyl-phenyl]butanoic acid], for which the CC50 came out at 34 ± 20 µM in the series with 8MGBA cells and 14 ± 4 µM in the series with AM38 cells. Further, in series [1] (10 mg/kg IV once a week for six weeks), the “body weight loss over the course of the study” value is reported as “no significant body weight loss”. Also, the median survival time in series [1] (10 mg/kg IV once a week for six weeks, vehicle 37) stood at 70 days; in series [1] (QBS10072S 10 mg/kg once a week for 4 weeks + RT 1.5 Gy daily for 5 days, vehicle 35), 64 days; in series [1] (QBS10072S alone, 10 mg/kg once a week for 4 weeks, vehicle 35) it was 45 days. In addition, the “tumor growth inhibition (TGI) vs. vehicle” value in series [1] (day 35, 10 mg/kg IV once a week for six weeks) was 95%. Moreover, the “%TGI” value in series [1] (day 35, QBS10072S alone, 10 mg/kg once a week for 4 weeks) is recorded as 86%; in series [1] (day 35, combination of QBS10072S 10 mg/kg once a week for 4 weeks and RT 1.5 Gy once daily for 5 days) it was 96%.

The values are drawn from article PMC8482806, “A Novel Blood-Brain Barrier-Permeable Chemotherapeutic Agent for the Treatment of Glioblastoma” (Cureus, 2021).
